Measured values reported in patent US20250311727A1, “SUBSTITUTED 2-AMINOAZINES AND SALTS THEREOF, AND USE THEREOF AS HERBICIDAL ACTIVE SUBSTANCES” (BAYER AKTIENGESELLSCHAFT, priority 2022, published 2025).

Columns and labels:
Format in all cases: in vivo
Abutilon theophrasti [1] = assay: Post-emergence herbicidal efficacy at 320 g/ha, ABUTH; details: rated visually after about 3 weeks vs untreated controls, 100% = plants have died
Summary of the method: (§1)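 One-leaf-stage weeds, sandy loam pots, greenhouse; foliar spray of WP/EC, 0.5% additive, 600 L/ha water; visual rating at ~3 wk, 0–100% vs untreated.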

Alopecurus myosuroides [2] = assay: Post-emergence herbicidal efficacy at 320 g/ha, ALOMY; details: rated visually after about 3 weeks vs untreated controls, 100% = plants have died
Excerpt: (§2) Unwanted plants/weeds: • ABUTH: Abutilon theophrasti • ALOMY: Alopecurus myosuroides • AMARE: Amaranthus retroflexus • DIGSA: Digitaria sanguinalis • ECHCG: Echinochloa crus-galli • KCHSC: Kochia scoparia • LOLRI: Lolium rigidum • MATIN: Matricaria inodora • POAAN: Poa annua • POLCO: Polygonum convolvulus • SETVI: Setaria viridis • STEME: Stellaria media • VERPE: Veronica persica • VIOTR: Viola tricolor A. Post-Emergence Herbicidal Efficacy at 320 g/ha
(§3) Seeds of mono- and dicotyledonous weed plants were placed in plastic pots in sandy loam soil (doubly sown with in each case one species of mono- or dicotyledonous weed plants per pot), covered with soil and cultivated in a greenhouse under controlled growth conditions. 2 to 3 weeks after sowing, the test plants were treated at the one-leaf stage. The compounds of the invention, formulated in the form of wettable powders (WP) or as emulsion concentrates (EC), were applied to the green parts of the plants as aqueous suspension or emulsion with addition of 0.5% additive at a water application rate equivalent to 600 litres per hectare. After the test plants had been kept in the greenhouse under optimum growth conditions for about 3 weeks, the activity of the preparations was rated visually in comparison to untreated controls.
(§4) For example, 100% activity=the plants have died, 0% activity=like control plants.
(§5) Tables A1 to A10 below show the effects of selected compounds of the general formula (I) according to Table 1 on various harmful plants and at an application rate corresponding to 320 g/ha, which were obtained by the trial procedure specified above.

Amaranthus retroflexus [3] = assay: Post-emergence herbicidal efficacy at 320 g/ha, AMARE; details: rated visually after about 3 weeks vs untreated controls, 100% = plants have died
Summary of the method: as §1

Digitaria sanguinalis [4] = assay: Post-emergence herbicidal efficacy at 320 g/ha, DIGSA; details: rated visually after about 3 weeks vs untreated controls, 100% = plants have died
Excerpt: as §2, §3, §4, §5

Echinochloa crus-galli [5] = assay: Post-emergence herbicidal efficacy at 320 g/ha, ECHCG; details: rated visually after about 3 weeks vs untreated controls, 100% = plants have died
Summary of the method: as §1

Kochia scoparia [6] = assay: Post-emergence herbicidal efficacy at 320 g/ha, KCHSC; details: rated visually after about 3 weeks vs untreated controls, 100% = plants have died
Summary of the method: as §1

Poa annua [7] = assay: Post-emergence herbicidal efficacy at 320 g/ha, POAAN; details: rated visually after about 3 weeks vs untreated controls, 100% = plants have died
Excerpt: as §2, §3, §4, §5

Stellaria media [8] = assay: Post-emergence herbicidal efficacy at 320 g/ha, STEME; details: rated visually after about 3 weeks vs untreated controls, 100% = plants have died
Summary of the method: as §1

Veronica persica [9] = assay: Post-emergence herbicidal efficacy at 320 g/ha, VERPE; details: rated visually after about 3 weeks vs untreated controls, 100% = plants have died
Summary of the method: as §1

Abutilon theophrasti [10] = assay: Post-emergence herbicidal efficacy at 80 g/ha, ABUTH; details: rated visually after about 3 weeks vs untreated controls, 100% = plants have died
Excerpt: as §2
(§6) Seeds of monocotyledonous and dicotyledonous weeds and crop plants were placed in sandy loam in plastic or organic planting pots, covered with soil and cultivated in a greenhouse under controlled growth conditions. 2 to 3 weeks after sowing, the test plants were treated at the one-leaf stage. The compounds of the invention, formulated in the form of wettable powders (WP) or as emulsion concentrates (EC), were then sprayed onto the green parts of the plants as aqueous suspension or emulsion with addition of 0.5% additive at a water application rate of 600 l/ha (converted). After the test plants had been kept in the greenhouse under optimum growth conditions for about 3 weeks, the activity of the preparations was rated visually in comparison to untreated controls. For example, 100% activity=the plants have died, 0% activity=like control plants.
(§7) Tables B1 to B11 below show the effects of selected compounds of the general formula (I) according to Table 1 on various harmful plants and an application rate corresponding to 80 g/ha, which were obtained by the experimental procedure mentioned above.

Amaranthus retroflexus [11] = assay: Post-emergence herbicidal efficacy at 80 g/ha, AMARE; details: rated visually after about 3 weeks vs untreated controls, 100% = plants have died
Summary of the method: (§8)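 Visual rating against untreated plants, about 3 weeks after treatment, on a 0–100% scale where 100% means dead plants. Compounds were formulated as WP or EC with 0.5% additive and applied at 600 l/ha water onto one-leaf-stage greenhouse weeds, sown 2–3 weeks earlier in sandy loam.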

Kochia scoparia [12] = assay: Post-emergence herbicidal efficacy at 80 g/ha, KCHSC; details: rated visually after about 3 weeks vs untreated controls, 100% = plants have died
Summary of the method: as §8

Setaria viridis [13] = assay: Post-emergence herbicidal efficacy at 80 g/ha, SETVI; details: rated visually after about 3 weeks vs untreated controls, 100% = plants have died
Excerpt: as §2, §6, §7

Veronica persica [14] = assay: Post-emergence herbicidal efficacy at 80 g/ha, VERPE; details: rated visually after about 3 weeks vs untreated controls, 100% = plants have died
Summary of the method: as §8

Viola tricolor [15] = assay: Post-emergence herbicidal efficacy at 80 g/ha, VIOTR; details: rated visually after about 3 weeks vs untreated controls, 100% = plants have died
Excerpt: as §2, §6, §7

Abutilon theophrasti [16] = assay: Pre-emergence herbicide efficacy at 320 g/ha, ABUTH; details: scored visually after about 3 weeks vs untreated controls, 100% = plants have died
Summary of the method: (§9)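 Visual scores, given as percent of untreated controls (0% = no effect, 100% = dead plants), were taken about 3 weeks after treatment under greenhouse conditions. Treatment was a pre-emergence soil-surface application of WP or EC formulation at 320 g/ha, made up in 600 L/ha water plus 0.5% additive, over seeds covered in sandy loam.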

Alopecurus myosuroides [17] = assay: Pre-emergence herbicide efficacy at 320 g/ha, ALOMY; details: scored visually after about 3 weeks vs untreated controls, 100% = plants have died
Excerpt: as §2
(§10) Seeds of mono- and dicotyledonous weed plants were placed in plastic pots in sandy loam soil (doubly sown with one species each of mono- or dicotyledonous weed plants per pot) and covered with soil. The compounds of the invention, formulated in the form of wettable powders (WP) or as emulsion concentrates (EC), were then applied to the surface of the covering soil as aqueous suspension or emulsion with addition of 0.5% additive at a water application rate of 600 litres per hectare (converted). After the treatment, the pots were placed in a greenhouse and kept under good growth conditions for the test plants. After about 3 weeks, the efficacy of the preparations was scored visually in comparison with untreated controls as percentages.
as §4
(§11) Tables C1 to C12 below show the effects of selected compounds of the general formula (I) according to Table 1 on various harmful plants and at an application rate corresponding to 320 g/ha, which were obtained by the trial procedure specified above.

Amaranthus retroflexus [18] = assay: Pre-emergence herbicide efficacy at 320 g/ha, AMARE; details: scored visually after about 3 weeks vs untreated controls, 100% = plants have died
Summary of the method: as §9

Digitaria sanguinalis [19] = assay: Pre-emergence herbicide efficacy at 320 g/ha, DIGSA; details: scored visually after about 3 weeks vs untreated controls, 100% = plants have died
Summary of the method: as §9

Echinochloa crus-galli [20] = assay: Pre-emergence herbicide efficacy at 320 g/ha, ECHCG; details: scored visually after about 3 weeks vs untreated controls, 100% = plants have died
Summary of the method: as §9

Kochia scoparia [21] = assay: Pre-emergence herbicide efficacy at 320 g/ha, KCHSC; details: scored visually after about 3 weeks vs untreated controls, 100% = plants have died
Summary of the method: as §9

Poa annua [22] = assay: Pre-emergence herbicide efficacy at 320 g/ha, POAAN; details: scored visually after about 3 weeks vs untreated controls, 100% = plants have died
Summary of the method: as §9

Setaria viridis [23] = assay: Pre-emergence herbicide efficacy at 320 g/ha, SETVI; details: scored visually after about 3 weeks vs untreated controls, 100% = plants have died
Summary of the method: as §9

Stellaria media [24] = assay: Pre-emergence herbicide efficacy at 320 g/ha, STEME; details: scored visually after about 3 weeks vs untreated controls, 100% = plants have died
Summary of the method: as §9

Veronica persica [25] = assay: Pre-emergence herbicide efficacy at 320 g/ha, VERPE; details: scored visually after about 3 weeks vs untreated controls, 100% = plants have died
Summary of the method: as §9

Amaranthus retroflexus [26] = assay: Pre-emergence herbicide efficacy at 80 g/ha, AMARE; details: scored visually after about 3 weeks vs untreated controls, 100% = plants have died
Summary of the method: (§12)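 Visual % activity scored after roughly 3 weeks in the greenhouse against untreated pots, 100% meaning dead plants and 0% like controls. Treatment was soil-surface application right after sowing, at 80 g/ha. Formulated as WP or EC in water at 600 l/ha with 0.5% additive.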

Digitaria sanguinalis [27] = assay: Pre-emergence herbicide efficacy at 80 g/ha, DIGSA; details: scored visually after about 3 weeks vs untreated controls, 100% = plants have died
Excerpt: as §2
(§13) Seeds of monocotyledonous and dicotyledonous weed plants and crop plants were placed in plastic or organic planting pots and covered with soil. The compounds of the invention, formulated in the form of wettable powders (WP) or as emulsion concentrates (EC), were then applied to the surface of the covering soil as aqueous suspension or emulsion with addition of 0.5% additive at a water application rate equivalent to 600 l/ha. After the treatment, the pots were placed in a greenhouse and kept under good growth conditions for the test plants. After about 3 weeks, the efficacy of the preparations was scored visually in comparison with untreated controls as percentages. For example, 100% activity=the plants have died, 0% activity=like control plants.
(§14) Tables D1 to D12 below show the effects of selected compounds of the general formula (I) according to Table 1 on various harmful plants and an application rate corresponding to 80 g/ha, which were obtained by the experimental procedure mentioned above.

Setaria viridis [28] = assay: Pre-emergence herbicide efficacy at 80 g/ha, SETVI
Summary of the method: as §12

Veronica persica [29] = assay: Pre-emergence herbicide efficacy at 80 g/ha, VERPE
Excerpt: as §2, §13, §14

Viola tricolor [30] = assay: Pre-emergence herbicide efficacy at 80 g/ha, VIOTR
Summary of the method: as §12

Lolium rigidum = assay: Pre-emergence herbicide efficacy at 320 g/ha, LOLRI; details: scored visually after about 3 weeks vs untreated controls, 100% = plants have died
Excerpt: as §2, §10, §4, §11

Fc1cccc(Nc2ncc(Cl)cn2)c1-c1cc(C(F)F)no1 [Example 1-33]
80%: Post-emergence efficacy at 80 g/ha against ABUTH in % (Abutilon theophrasti [10])
100%: Post-emergence efficacy at 320 g/ha against ABUTH in % (Abutilon theophrasti [1]) | Post-emergence efficacy at 320 g/ha against ALOMY in % (Alopecurus myosuroides [2]) | Post-emergence efficacy at 320 g/ha against AMARE in % (Amaranthus retroflexus [3]) | Post-emergence efficacy at 320 g/ha against DIGSA in % (Digitaria sanguinalis [4]) | Post-emergence efficacy at 320 g/ha against ECHCG in % (Echinochloa crus-galli [5]) | Post-emergence efficacy at 320 g/ha against KCHSC in % (Kochia scoparia [6]) | Post-emergence efficacy at 320 g/ha against POAAN in % (Poa annua [7]) | Post-emergence efficacy at 320 g/ha against STEME in % (Stellaria media [8]) | Post-emergence efficacy at 320 g/ha against VERPE in % (Veronica persica [9]) | Post-emergence efficacy at 80 g/ha against AMARE in % (Amaranthus retroflexus [11]) | Post-emergence efficacy at 80 g/ha against KCHSC in % (Kochia scoparia [12]) | Post-emergence efficacy at 80 g/ha against SETVI in % (Setaria viridis [13]) | Post-emergence efficacy at 80 g/ha against VERPE in % (Veronica persica [14]) | Post-emergence efficacy at 80 g/ha against VIOTR in % (Viola tricolor [15]) | Pre-emergence efficacy at 320 g/ha against ABUTH in % (Abutilon theophrasti [16]) | Pre-emergence efficacy at 320 g/ha against ALOMY in % (Alopecurus myosuroides [17]) | Pre-emergence efficacy at 320 g/ha against AMARE in % (Amaranthus retroflexus [18]) | Pre-emergence efficacy at 320 g/ha against DIGSA in % (Digitaria sanguinalis [19]) | Pre-emergence efficacy at 320 g/ha against ECHCG in % (Echinochloa crus-galli [20]) | Pre-emergence efficacy at 320 g/ha against KCHSC in % (Kochia scoparia [21]) | Pre-emergence efficacy at 320 g/ha against POAAN in % (Poa annua [22]) | Pre-emergence efficacy at 320 g/ha against SETVI in % (Setaria viridis [23]) | Pre-emergence efficacy at 320 g/ha against STEME in % (Stellaria media [24]) | Pre-emergence efficacy at 320 g/ha against VERPE in % (Veronica persica [25]) | Pre-emergence efficacy at 80 g/ha against AMARE in % (Amaranthus retroflexus [26]) | Pre-emergence efficacy against SETVI (Setaria viridis [28])
90%: Pre-emergence efficacy at 80 g/ha against DIGSA in % (Digitaria sanguinalis [27]) | Pre-emergence efficacy against VERPE (Veronica persica [29]) | Pre-emergence efficacy against VIOTR (Viola tricolor [30])

Fc1cnc(Nc2cccc(F)c2-n2cc(C(F)(F)F)cn2)nc1 [Example 1-48]
90%: Post-emergence efficacy at 320 g/ha against ECHCG in % (Echinochloa crus-galli [5]) | Post-emergence efficacy at 320 g/ha against KCHSC in % (Kochia scoparia [6])
100%: Post-emergence efficacy at 320 g/ha against AMARE in % (Amaranthus retroflexus [3]) | Pre-emergence efficacy at 320 g/ha against AMARE in % (Amaranthus retroflexus [18]) | Pre-emergence efficacy at 320 g/ha against DIGSA in % (Digitaria sanguinalis [19]) | Pre-emergence efficacy at 320 g/ha against KCHSC in % (Kochia scoparia [21]) | Pre-emergence efficacy at 320 g/ha against LOLRI in % (Lolium rigidum) | Pre-emergence efficacy at 320 g/ha against POAAN in % (Poa annua [22]) | Pre-emergence efficacy at 320 g/ha against SETVI in % (Setaria viridis [23]) | Pre-emergence efficacy at 320 g/ha against STEME in % (Stellaria media [24]) | Pre-emergence efficacy at 320 g/ha against VERPE in % (Veronica persica [25])
